Test results published in patent US7199100B2, “Cyclic peptides, method for preparing and use as angiogenesis inhibitors or activator” (Commissariat a l'Energie Atomique, priority 2000, dated 2007).
Where two headings read alike, the source gives them in different places. Square brackets hold non-standard residues; d marks the D form. Peptide text beside a SMILES is read from it. * marks the point of attachment. OAll = C=CCO*

What was measured:
KDR receptor (VEGFR2) = target: T1, KDR receptor (VEGFR2) (Homo sapiens, UniProt P35968); test: Inhibition of 125I-VEGF binding to KDR receptor on CHOm VEGFR2 cells; details: for inhibiting binding of VEGF to the KDR receptor (in words): 125I-VEGF
T1 construct: expressed in transfected cells; host or cells: heparan sulfate deficient Chinese hamster ovary cells (CHOm VEGFR2), VEGFR2 cDNA in psV-7d vector
T1 sequence (P35968 20-1356, species assumed): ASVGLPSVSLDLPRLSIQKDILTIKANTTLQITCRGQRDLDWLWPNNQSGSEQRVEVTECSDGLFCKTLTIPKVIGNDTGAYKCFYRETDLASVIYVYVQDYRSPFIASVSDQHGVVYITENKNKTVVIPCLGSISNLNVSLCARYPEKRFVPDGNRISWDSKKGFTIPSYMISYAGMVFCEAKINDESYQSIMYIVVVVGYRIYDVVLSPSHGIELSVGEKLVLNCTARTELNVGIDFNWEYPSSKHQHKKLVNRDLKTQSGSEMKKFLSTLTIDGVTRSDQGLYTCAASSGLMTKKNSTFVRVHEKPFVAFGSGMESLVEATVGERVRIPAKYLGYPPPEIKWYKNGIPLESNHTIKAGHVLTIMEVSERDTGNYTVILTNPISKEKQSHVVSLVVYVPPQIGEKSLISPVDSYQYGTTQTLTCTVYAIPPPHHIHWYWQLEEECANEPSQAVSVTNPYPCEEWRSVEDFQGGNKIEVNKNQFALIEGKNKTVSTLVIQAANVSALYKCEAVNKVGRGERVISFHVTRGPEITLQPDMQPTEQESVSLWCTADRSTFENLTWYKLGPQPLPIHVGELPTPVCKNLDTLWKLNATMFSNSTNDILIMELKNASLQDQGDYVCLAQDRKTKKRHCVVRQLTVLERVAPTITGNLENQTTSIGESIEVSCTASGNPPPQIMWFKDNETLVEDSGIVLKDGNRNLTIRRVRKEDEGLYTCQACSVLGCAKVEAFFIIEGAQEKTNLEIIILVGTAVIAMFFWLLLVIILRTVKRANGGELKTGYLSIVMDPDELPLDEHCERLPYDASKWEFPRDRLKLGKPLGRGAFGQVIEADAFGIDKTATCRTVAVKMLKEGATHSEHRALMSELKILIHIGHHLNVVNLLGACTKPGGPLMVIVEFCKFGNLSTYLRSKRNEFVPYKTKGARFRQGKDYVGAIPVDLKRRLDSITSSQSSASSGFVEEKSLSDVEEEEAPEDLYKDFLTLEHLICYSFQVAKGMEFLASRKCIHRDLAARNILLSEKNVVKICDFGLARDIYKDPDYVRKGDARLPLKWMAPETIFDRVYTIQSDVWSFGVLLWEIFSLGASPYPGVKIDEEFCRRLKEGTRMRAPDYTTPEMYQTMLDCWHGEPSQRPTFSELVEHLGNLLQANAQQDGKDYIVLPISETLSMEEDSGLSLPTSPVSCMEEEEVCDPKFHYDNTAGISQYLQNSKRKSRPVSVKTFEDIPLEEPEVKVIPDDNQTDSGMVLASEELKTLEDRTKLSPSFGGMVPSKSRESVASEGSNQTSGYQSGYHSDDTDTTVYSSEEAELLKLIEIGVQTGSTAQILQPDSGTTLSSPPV
Experimental: The P1 to P24 peptides are tested as concerns their property of inhibition of the binding of VEGF to its KDR receptor.
For these tests, heparin sulfate deficient Chinese hamster ovarian cells that are transfected with an expression vector containing VEGFR2cDnA (CHOm VEGFR2 cells) are used.
The CHOm VEGFR2 cells are routinely cultured in Dulbecco modified Eagle medium and supplemented with 10% (v/v) fetal calf serum (FCS), 50 U/ml penicillin, 50 μg/ml streptomycin, 1 mg/ml glucose and 2 mM L-glutamine at 37° C. in a 5% CO2 atmosphere.
The subconfluent flasks are transferred at 4° C. […] At the end of the incubation period, the cells are washed 3 times using iced PBS and solubized in 1 mL of buffer with 2% Triton X 100, 10% glycol, 1 mg/mL bovine serum albumin BSA. The radioactivity rate bound to the cells is counted in an MR-250 Kontron gamma counter. […] Specific binding is calculated by subtracting non-specific binding from total binding.
These assays are continued using the cyclopeptides of interest and two linear peptides as controls for an inhibition analysis as a function of dose.

endothelial cells [1] = test: VEGF-stimulated endothelial cell migration (monolayer denudation); type: cell-based; details: 10 ng/mL VEGF
Experimental: Cellular migration is measured according to the method described by Sato and Rifkin (J. Cell Biol., September, 1988, (107 (3): 1199–205) [17] with modifications. 100,000 endothelial cells are placed in 35 mm culture flasks in DMEM medium containing 10% fetal calf serum. On confluence, the medium is replaced by DMEM medium without serum and the cells are incubated overnight. On the next day, denudation is done artificially in the monolayer using a sterile pipette tip. A series of digital photographs is taken and the border of denudation is marked by a line using the BiocomVisionLab2000 program. The flasks are then rinsed and incubated with 10 ng/mL VEGF in the presence or absence of peptide. After 18 hours of incubation a new series of photographs is taken and the before and after stimulation images are superimposed. The cells situated beyond the border of denudation are counted.

ERK2 (p42) = test: VEGF-induced phosphorylation of ERK2 (p42), Western blot, capillary endothelial cells; type: cell-based; details: p42 and p44 together, 10 ng/mL of VEGF
Experimental: Phosphorylation of ERK1 (p44) and ERK2 (p42) is measured by Western blot using anti p42/p44 antibodies (New England Biolabs). The capillary endothelial cells are cultivated in DMEM containing 10% newborn bovine serum. Subconfluent cultures are then deprived of serum over a period of 24 hours. The peptides are then added at specific concentrations over 5 minutes to the cells in the presence or absence of 10 ng/mL of VEGF. The cells are then removed from the culture flasks and lysed for 20 minutes over ice in lysis buffer containing […], pH 7.4, 75 mM NaCl, 1 mM EDTA, 1% Nonidet P-40 and 0.01% of SDS. The insoluble material is removed by centrifugation and 50 μg/mL of protein extract are separated by polyacrylamide gel electrophoresis containing sodium dodecyl sulfate (SDS) under denaturing conditions. The proteins are then transferred from the gel onto a nitrocellulose membrane (Amersham Pharmacia Biotech, Orsay) using a transfer apparatus (semi-dry transfer, Bio-Rad, Irvy-sur-Seine, France). […] The results are quantified using the Image Quant program (Molecular Dynamics).
The assays were done as indicated. […] The degree of phosphorylation is estimated after quantification of the signals obtained using autoradiographic films and the results are expressed in percent inhibition relative to the signal obtained using 10 ng/mL of VEGF alone.

endothelial cells [2] = test: VEGF-stimulated endothelial cell proliferation (cell count); type: cell-based; details: 10 ng/mL of VEGF
Experimental: Cellular proliferation is measured by cell count. 7,000 endothelial cells are placed in the wells of 24-well plates (Costar) in DMEM medium containing newborn bovine serum. […] Two days later, the cells area once again stimulated by VEGF in the presence or absence of different concentrations of peptide. At the fifth day, the cells are trypsinized and counted using a Coulter counter.

[3] = CHOm VEGFR2 cells, 5 ng/mL 125I-VEGF, 2 hours at 4° C.

Molecule	IC50 (KDR receptor (VEGFR2)) [µM]	inhibiting binding of VEGF to the KDR receptor (in words) (KDR receptor (VEGFR2); CHOm VEGFR2 cells)	further results
CC[C@H](C)[C@H](NC(=O)[C@H](CCCNC(=N)N)NC(=O)CN)C(=O)N[C@@H](CCCCN)C(=O)N1CCC[C@@H]1C(=O)N[C@@H](Cc1c[nH]cn1)C(=O)N[C@@H](CCC(N)=O)C(=O)NCC(=O)N[C@@H](CCC(N)=O)C(=O)N[C@@H](Cc1c[nH]cn1)C(=O)O [Peptide P6, H-Gly-Arg-Ile-Lys-DPro-His-Gln-Gly-Gln-His-OH] (H-GRIK[dP]HQGQH-OH)	> 300		
CC[C@H](C)[C@@H]1NC(=O)[C@H](CCCNC(=N)N)NC(=O)CNC(=O)[C@H](Cc2c[nH]cn2)NC(=O)[C@H](CCC(N)=O)NC(=O)CNC(=O)[C@H](CCC(N)=O)NC(=O)[C@H](Cc2c[nH]cn2)NC(=O)[C@H]2CCCN2C(=O)[C@H](CCCCN)NC1=O [Peptide P7, cyclo(Gly-Arg-Ile-Lys-DPro-His-Gln-Gly-Gln-His)] (cyclo(GQHGRIK[dP]HQ))	> 300		
CC[C@H](C)[C@@H]1NC(=O)[C@H](CCCNC(=N)N)NC(=O)CNC(=O)[C@H](Cc2c[nH]cn2)NC(=O)CNC(=O)[C@H](CCC(N)=O)NC(=O)[C@H](Cc2c[nH]cn2)NC(=O)[C@@H]2CCCN2C(=O)[C@H](CCCCN)NC1=O [Peptide P8] (cyclo(GRIKPHQGH))			IC50 (KDR receptor (VEGFR2); [3]): 200 µM
CC[C@H](C)[C@@H]1NC(=O)[C@H](CCCNC(=N)N)NC(=O)[C@@H]2CCCN2C(=O)[C@H](Cc2c[nH]cn2)NC(=O)[C@H](CCC(N)=O)NC(=O)CNC(=O)[C@H](CCC(N)=O)NC(=O)[C@H](Cc2c[nH]cn2)NC(=O)[C@@H]2CCCN2C(=O)[C@H](CCCCN)NC1=O [Peptide P9] (cyclo(GQHPRIKPHQ))	300		
C=CCOC(=O)[C@H](CCC(=O)O)NC(=O)CNC(=O)[C@@H](NC(=O)[C@H](Cc1c[nH]cn1)NC(=O)[C@H](CCC(N)=O)NC(=O)CNC(=O)[C@H](CCC(N)=O)NC(=O)[C@H](Cc1c[nH]cn1)NC(=O)[C@@H]1CCCN1C(=O)[C@H](CCCCN)NC(=O)[C@@H](NC(=O)[C@H](CCCNC(=N)N)NC(=O)[C@H](CCSC)NC(=O)[C@@H](NC(=O)[C@@H](N)CCC(N)=O)[C@@H](C)CC)[C@@H](C)CC)[C@@H](C)CC [Peptide P10] (H-QIMRIKPHQGQHIGE-OAll)	> 300		
CC[C@H](C)[C@@H]1NC(=O)[C@H](Cc2c[nH]cn2)NC(=O)[C@H](CCC(N)=O)NC(=O)CNC(=O)[C@H](CCC(N)=O)NC(=O)[C@H](Cc2c[nH]cn2)NC(=O)[C@@H]2CCCN2C(=O)[C@H](CCCCN)NC(=O)[C@H]([C@@H](C)CC)NC(=O)[C@H](CCCNC(=N)N)NC(=O)[C@H](CCSC)NC(=O)[C@H]([C@@H](C)CC)NC(=O)[C@H](CCC(N)=O)NC(=O)[C@@H]2CCCN2C(=O)[C@@H](Cc2ccccc2)NC(=O)[C@H](CCC(=O)O)NC(=O)CNC1=O [Peptide P11] (cyclo([dF]PQIMRIKPHQGQHIGE))		very effective	inhibition of cellular migration (in words) (endothelial cells [1]): strongly inhibits; inhibition of phosphorylation of p42/p44 (in words) (ERK2 (p42)): strongly inhibits; inhibition of cellular proliferation (in words) (endothelial cells [2]): strong inhibition
CC[C@H](C)[C@@H]1NC(=O)[C@H](Cc2c[nH]cn2)NC(=O)[C@H](CCC(N)=O)NC(=O)CNC(=O)[C@H](CCC(N)=O)NC(=O)[C@H](Cc2c[nH]cn2)NC(=O)[C@@H]2CCCN2C(=O)[C@H](CCCCN)NC(=O)[C@H]([C@@H](C)CC)NC(=O)[C@H](CCCNC(=N)N)NC(=O)[C@H](CCSC)NC(=O)[C@H]([C@@H](C)CC)NC(=O)[C@H](CCC(N)=O)NC(=O)CNC(=O)[C@H](CCC(=O)O)NC(=O)CNC1=O [Peptide P12] (cyclo(EGQIMRIKPHQGQHIG))	300		
CC[C@H](C)[C@@H]1NC(=O)[C@H](Cc2c[nH]cn2)NC(=O)[C@H](CCC(N)=O)NC(=O)CNC(=O)[C@H](CCC(N)=O)NC(=O)[C@H](Cc2c[nH]cn2)NC(=O)[C@@H]2CCCN2C(=O)[C@H](CCCCN)NC(=O)[C@H]([C@@H](C)CC)NC(=O)[C@H](CCCNC(=N)N)NC(=O)[C@H](CCSC)NC(=O)[C@H]([C@@H](C)CC)NC(=O)[C@H](CCC(N)=O)NC(=O)[C@@H]2CCCN2C(=O)[C@H](CCC(=O)O)NC(=O)CNC1=O [Peptide P13] (cyclo(EPQIMRIKPHQGQHIG))	> 300		
CC[C@H](C)[C@@H]1NC(=O)[C@H](CCCNC(=N)N)NC(=O)CNC(=O)[C@H](CCC(N)=O)NC(=O)[C@H](Cc2c[nH]cn2)NC(=O)[C@@H]2CCCN2C(=O)[C@H](CCCCN)NC1=O [Peptide P16, cyclo(Arg-Ile-Lys-Pro-His-Gln-Gly)] (cyclo(RIKPHQG))		very effective	
CC[C@H](C)[C@@H]1NC(=O)[C@H](CCCNC(=N)N)NC(=O)[C@@H]2CCCN2C(=O)CNC(=O)[C@H](CCC(N)=O)NC(=O)[C@H](Cc2c[nH]cn2)NC(=O)[C@@H]2CCCN2C(=O)[C@H](CCCCN)NC1=O [Peptide P17] (cyclo(PRIKPHQG))	10	very effective	
CC[C@H](C)[C@@H]1NC(=O)[C@H](Cc2c[nH]cn2)NC(=O)[C@H](CCC(N)=O)NC(=O)CNC(=O)[C@H](CCC(N)=O)NC(=O)[C@H](Cc2c[nH]cn2)NC(=O)[C@@H]2CCCN2C(=O)[C@H](CCCCN)NC(=O)[C@H]([C@@H](C)CC)NC(=O)[C@H](CCCNC(=N)N)NC(=O)[C@H](CCSC)NC(=O)[C@H]([C@@H](C)CC)NC(=O)[C@H](CCC(N)=O)NC(=O)[C@H](CCC(=O)O)NC(=O)CNC1=O [Peptide P19] (cyclo(QIMRIKPHQGQHIGE))		very effective	
CC[C@H](C)[C@@H]1NC(=O)[C@H](Cc2c[nH]cn2)NC(=O)[C@H](CCC(N)=O)NC(=O)CNC(=O)[C@H](CCC(N)=O)NC(=O)[C@H](Cc2c[nH]cn2)NC(=O)[C@@H]2CCCN2C(=O)[C@H](CCCCN)NC(=O)[C@H]([C@@H](C)CC)NC(=O)[C@H](CCCNC(=N)N)NC(=O)[C@H](CCSC)NC(=O)[C@H]([C@@H](C)CC)NC(=O)[C@H](CCC(N)=O)NC(=O)[C@@H]2CCCN2C(=O)[C@@H](Cc2ccccc2)NC(=O)CNC1=O [Peptide P20] (cyclo([dF]PQIMRIKPHQGQHIG))	10	very effective	
CC[C@H](C)[C@@H]1NC(=O)[C@H](CCCNC(=N)N)NC(=O)[C@H](CCSC)NC(=O)[C@H]([C@@H](C)CC)NC(=O)[C@@H]2CCCN2C(=O)[C@@H](Cc2ccccc2)NC(=O)[C@H]([C@@H](C)CC)NC(=O)[C@H](Cc2c[nH]cn2)NC(=O)[C@H](CCC(N)=O)NC(=O)CNC(=O)[C@H](CCC(N)=O)NC(=O)[C@H](Cc2c[nH]cn2)NC(=O)[C@@H]2CCCN2C(=O)[C@H](CCCCN)NC1=O [Peptide P21] (cyclo(GQHI[dF]PIMRIKPHQ))	200		
CC[C@H](C)[C@@H]1NC(=O)[C@H](CCC(N)=O)NC(=O)[C@H](CCC(=O)O)NC(=O)[C@H](CCC(N)=O)NC(=O)[C@H](Cc2c[nH]cn2)NC(=O)[C@@H]2CCCN2C(=O)[C@H](CCCCN)NC(=O)[C@H]([C@@H](C)CC)NC(=O)[C@H](CCCNC(=N)N)NC(=O)[C@H](CCSC)NC1=O [Peptide P22, reference compound] (cyclo(EQIMRIKPHQ))	> 300		
CC[C@H](C)[C@@H]1NC(=O)[C@H](CCCNC(=N)N)NC(=O)[C@@H]2CCCN2C(=O)[C@@H](Cc2ccc(O)cc2)NC(=O)[C@H](CCC(N)=O)NC(=O)[C@H](Cc2c[nH]cn2)NC(=O)[C@@H]2CCCN2C(=O)[C@H](CCCCN)NC1=O [Peptide P23] (cyclo([dY]PRIKPHQ))		very effective	
CC[C@H](C)[C@@H]1NC(=O)[C@H](CCCNC(=N)N)NC(=O)CNC(=O)[C@H](Cc2c[nH]cn2)NC(=O)[C@@H]2CCCN2C(=O)[C@H](CCCCN)NC1=O [Peptide P24, cyclo(Gly-Arg-Ile-Lys-Pro-His)] (cyclo(GRIKPH))		very effective	IC50 (KDR receptor (VEGFR2); [3]): 8 µM
H-GQIMRIKPHQGQHIGE-OH [Peptide P15]	> 300		
H-PQIMRIKPHQGQHIGE-OH [Peptide P14]	> 300		
H-QIMRIKPH-OH [Peptide P2]	> 300		
H-QIMRIKPHQGQHIG-OH [Peptide P5]	> 300		
H-QIMRIKPHQGQHIGE-OH [Peptide P4]	> 300		
H-RIKPH-OH [Peptide P1, H-Arg-Ile-Lys-Pro-His-OH]			IC50 (KDR receptor (VEGFR2); [3]): > 300 µM
H-RIKPHQG-OH [Peptide P3, H-Arg-Ile-Lys-Pro-His-Gln-Gly-OH]	> 300		
